This note sets out measurements from publication PMC3057979 (PLoS ONE, 2011).

Where no end group is shown, it is not given here.

In assay [1] the test system is CD4^+ T cells of recombinant protein vaccinated C57BL/6 mice. The assay is classed as cell-based.
Assay [2] has as its system CD4^+ T cells of PI-WCV vaccinated C57BL/6 mice. To be noted: 20 h.
The test system of assay [3] is CD4^+ T cells of C. burnetii RSA 439 infected C57BL/6 mice. It counts as cell-based.
Assay [4] concerns the target T1, H-2 I-A^b (purified IA^b MHC class II) (Mus musculus, UniProt P14434+P14483).
T1 construct: endogenous in cells; host or cells: mouse B-cell lymphoma LB27.4
T1 sequence (P14434 24-256): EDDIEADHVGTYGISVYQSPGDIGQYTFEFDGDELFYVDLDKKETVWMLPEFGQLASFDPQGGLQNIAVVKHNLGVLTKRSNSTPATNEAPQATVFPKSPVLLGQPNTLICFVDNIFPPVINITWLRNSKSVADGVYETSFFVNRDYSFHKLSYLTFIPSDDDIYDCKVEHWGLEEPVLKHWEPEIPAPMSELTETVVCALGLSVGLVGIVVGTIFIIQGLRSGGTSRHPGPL
T1 sequence (P14483 28-265): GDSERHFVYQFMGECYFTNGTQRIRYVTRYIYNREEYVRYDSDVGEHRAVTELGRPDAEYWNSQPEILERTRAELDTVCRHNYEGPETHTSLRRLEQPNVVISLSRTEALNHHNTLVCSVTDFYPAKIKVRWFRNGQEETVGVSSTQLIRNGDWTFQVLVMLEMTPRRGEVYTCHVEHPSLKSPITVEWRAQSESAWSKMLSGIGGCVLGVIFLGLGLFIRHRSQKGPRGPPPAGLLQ
Description: biochemical. It counts as binding.

Assay [5] relates to IgG antibody production against CBU 0383, CBU 1157, CBU 1910. The arrangement: species or system C57BL/6 mice. To be noted: mouse, in vivo.

RYPNEPSRFEPKHID [CBU164510-24]: in assay [1], the SI-rAgs is given as 2.38. This sequence also registered an SI-WCV vaccination in assay [2] of 2.03±1.27. Further, in assay [3], the SI-Infection was 1.56±1.29.

For orientation: IC50 means the concentration that inhibits the measured activity by half. A lower IC50 goes with greater potency. Consider RLVGSFPAEERIGRT [CBU 1645_272–286], for which the half-maximal inhibitory concentration (IC50) in assay [4] came out at 1860 nM. In assay [2], this sequence displayed an SI-WCV vaccination of 3.50±0.96.

Sequence KLFNDPASPVAGNPH [CBU 1910_83–97] had a half-inhibitory concentration (IC50) in assay [4] of 351 nM. This sequence registered an SI-WCV vaccination in assay [2] of 3.67±1.12.

For IRNKLKIQATINNAK [CBU038398-112], in assay [1], the SI-rAgs is listed as 2.22. In addition, the SI-WCV vaccination in assay [2] was 1.07±0.51. In assay [3], this sequence yielded an SI-Infection of 0.43±0.57.

In assay [4], YDSLTTPTASVCQSE [CBU 1645_196–210] displayed an IC50 of 620 nM. This sequence displayed an SI-WCV vaccination in assay [2] of 4.13±1.01.

For DLPAAIVDAIAPQEG [CBU1645138-152], the SI-rAgs in assay [1] is recorded as 3. In assay [2], this sequence yielded an SI-WCV vaccination of 0.80±0.62. Moreover, the SI-Infection in assay [3] worked out at 0.67±0.34.

As to IRRLVGSFPAEERIG [CBU1645270-284], in assay [1], the SI-rAgs came out at 2.7. Moreover, in assay [2], the SI-WCV vaccination was found to be 3.10±1.15. Moreover, the SI-Infection in assay [3] is on record as 1.53±0.74.

Sequence RDSFNNFDASIISKY [CBU 0383_69–83] showed a 50% inhibitory concentration (IC50) in assay [4] of 507 nM. The sequence further yielded an SI-WCV vaccination in assay [2] of 5.33±3.10.

On to RGPWRYIRSFPILAS [CBU115761-75], for which, in assay [1], the SI-rAgs was 7.17. Moreover, in assay [2], the SI-WCV vaccination worked out at 1.87±1.67. The sequence also returned an SI-Infection in assay [3] of 0.57±0.34.

Consider LSLMLNYPNSADRYY [CBU 1157_108–122], for which, in assay [4], the concentration for half-maximal inhibition (IC50) was 1040 nM. The sequence also came in with an SI-WCV vaccination in assay [2] of 4.83±2.44.

Take YIWHFVDGHPIQNQW [CBU0383127-141]: the SI-rAgs in assay [1] came out at 16.22. Moreover, in assay [2], the SI-WCV vaccination worked out at 1.33±1.43. This sequence came in with an SI-Infection in assay [3] of 0.79±0.28.

DLRYHAPIYGAVHPR [CBU 1157_177–191]: the IC50 in assay [4] was 193 nM. In assay [2], the SI-WCV vaccination is reported as 3.67±1.53.

As for AKKLFNDPASPVAGN [CBU191081-95], the SI-rAgs in assay [1] stood at 4.8. This sequence also displayed an SI-WCV vaccination in assay [2] of 0.63±0.31. For the same sequence, the SI-Infection in assay [3] is 0.79±0.44.

For the sequence ENAKKLFNDPASPVA [CBU191079-93], in assay [1], the SI-rAgs is listed as 5.6. Besides, the SI-WCV vaccination in assay [2] worked out at 0.93±0.84. For the same sequence, the SI-Infection in assay [3] was found to be 0.93±0.35.

Regarding HYLVNHPEVLVEASQ [CBU 1910_45–59], the IC50 in assay [4] is 293 nM. The same sequence yielded an SI-WCV vaccination in assay [2] of 23.77±13.0.

With YVYDSLTTPTASVCQ [CBU1645194-208], the SI-rAgs in assay [1] stood at 6. The same sequence showed an SI-WCV vaccination in assay [2] of 0.67±0.25. The sequence further registered an SI-Infection in assay [3] of 0.43±0.17.

For RYHAPIYGAVHPRWL [CBU1157179-193], the SI-rAgs in assay [1] stood at 4.37. In addition, in assay [2], the SI-WCV vaccination is reported as 1.97±0.75. Moreover, in assay [3], the SI-Infection came out at 2.37±1.05.

As to PWRYIRSFPILASSG [CBU 1157_63–77], in assay [4], the half-inhibitory concentration (IC50) is 34 nM. This sequence also showed an SI-WCV vaccination in assay [2] of 6.80±1.25.

For RNNYRDSFNNFDASI [CBU038365-79], the SI-rAgs in assay [1] was found to be 3.06. Moreover, the SI-WCV vaccination in assay [2] came to 5.57±1.79. The SI-Infection in assay [3] turned out to be 3.25±2.21.

Regarding VHHYLVNHPEVLVEA [CBU 1910_43–57], the SI-rAgs in assay [1] was 15.9. Further, in assay [5], the “IgG antibodies against recombinant proteins after peptide immunization alone” value is recorded as “did not generate detectable antibodies”. This sequence returned an SI-WCV vaccination in assay [2] of 22.73±12.51. In assay [3], this sequence gave an SI-Infection of 28.27±9.54.
